# From ChEMBL document CHEMBL5532679, “Discovery and Characterization of RGH-122, a Potent, Selective, and Orally Bioavailable V1a Receptor Antagonist” (J Med Chem, 2024)
# Key:
# in vitro [1] = settings: human
# animal or person [2] = settings: Mus musculus, NMRI, po, read-out: INH
# animal or person [3] = settings: Mus musculus, NMRI, po, read-out: INH; remark: listed apart in the source
# [4] = Efflux ratio of apparent permeability across basolateral to apical side over apical to basolateral side in vinblastine treated human Caco-2 cells at 1 to 10 uM incubated for 15 to 60 hrs by HPLC analysis
# [5] = Apparent permeability of compound across apical to basal side in vinblastine treated human Caco-2 cells at 1 to 10 uM incubated for 15 to 60 mins by HPLC analysis
# in vitro [6] = settings: Wistar, rat, microsomes
# [7] = biological target: Voltage-gated inwardly rectifying potassium channel KCNH2 (Homo sapiens, UniProt Q12809)
# Chain of Voltage-gated inwardly rectifying potassium channel KCNH2 (Q12809 whole entry): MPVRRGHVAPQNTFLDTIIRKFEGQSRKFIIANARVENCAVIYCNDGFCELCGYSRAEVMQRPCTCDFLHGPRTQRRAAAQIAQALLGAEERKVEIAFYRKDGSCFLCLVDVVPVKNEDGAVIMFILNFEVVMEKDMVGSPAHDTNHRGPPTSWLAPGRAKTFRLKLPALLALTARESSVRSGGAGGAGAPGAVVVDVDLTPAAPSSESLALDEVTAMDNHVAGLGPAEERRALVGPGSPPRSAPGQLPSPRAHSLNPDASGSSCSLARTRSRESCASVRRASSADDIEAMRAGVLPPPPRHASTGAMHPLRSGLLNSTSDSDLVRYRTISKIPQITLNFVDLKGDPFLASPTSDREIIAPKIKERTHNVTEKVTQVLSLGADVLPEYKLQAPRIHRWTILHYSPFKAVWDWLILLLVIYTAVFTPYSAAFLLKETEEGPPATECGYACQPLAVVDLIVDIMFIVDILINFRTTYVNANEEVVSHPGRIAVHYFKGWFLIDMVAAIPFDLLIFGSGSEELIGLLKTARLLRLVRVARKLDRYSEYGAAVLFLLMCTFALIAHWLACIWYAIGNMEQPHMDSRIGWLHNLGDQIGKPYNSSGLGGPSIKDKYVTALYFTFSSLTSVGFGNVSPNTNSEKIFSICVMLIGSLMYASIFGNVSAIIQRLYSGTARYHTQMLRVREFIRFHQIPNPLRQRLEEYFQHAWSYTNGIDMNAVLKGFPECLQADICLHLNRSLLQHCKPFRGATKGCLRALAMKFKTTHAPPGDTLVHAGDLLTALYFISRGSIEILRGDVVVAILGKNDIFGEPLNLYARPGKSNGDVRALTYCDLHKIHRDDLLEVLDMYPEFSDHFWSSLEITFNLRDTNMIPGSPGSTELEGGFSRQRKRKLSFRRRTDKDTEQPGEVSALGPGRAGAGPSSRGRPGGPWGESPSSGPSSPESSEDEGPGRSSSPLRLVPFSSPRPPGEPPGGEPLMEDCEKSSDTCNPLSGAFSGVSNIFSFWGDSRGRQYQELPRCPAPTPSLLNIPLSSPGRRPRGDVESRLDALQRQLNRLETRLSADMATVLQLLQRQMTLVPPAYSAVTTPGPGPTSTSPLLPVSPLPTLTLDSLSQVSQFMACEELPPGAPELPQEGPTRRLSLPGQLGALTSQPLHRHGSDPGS
# Description: Inhibition of hERG expressed in CHO cells at -80 mV holding potential incubated for 7 to 10 mins by automated patch clamp method
# in vitro [8] = settings: NMRI, mouse, microsomes
# Vasopressin V1a receptor [9] = biological target: T1, Vasopressin V1a receptor (Homo sapiens, UniProt P37288)
# T1 sequence (P37288 whole entry): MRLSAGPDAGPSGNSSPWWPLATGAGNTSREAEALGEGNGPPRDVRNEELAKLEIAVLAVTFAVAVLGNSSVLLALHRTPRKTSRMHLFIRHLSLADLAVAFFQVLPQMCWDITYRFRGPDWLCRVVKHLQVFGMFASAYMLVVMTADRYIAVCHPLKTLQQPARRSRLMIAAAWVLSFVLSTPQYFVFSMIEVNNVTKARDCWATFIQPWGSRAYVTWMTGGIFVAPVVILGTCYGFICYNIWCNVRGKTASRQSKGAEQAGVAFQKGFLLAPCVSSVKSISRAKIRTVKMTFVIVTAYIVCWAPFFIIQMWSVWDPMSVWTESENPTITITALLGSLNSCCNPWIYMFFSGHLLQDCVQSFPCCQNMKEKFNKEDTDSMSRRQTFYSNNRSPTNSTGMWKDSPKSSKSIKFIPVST
# Description: Displacement of [3H]vasopressin from human V1A receptor assessed as inhibition constant by Cheng-Prusoff equation analysis
# Vasopressin V1a receptor [10] = biological target: T1, Vasopressin V1a receptor; remark: listed apart in the source
# Description: Antagonist activity at human V1A receptor expressed in human 1321N1 cells assessed as Ca2+ mobilization incubated for 15 mins by FLIPR calcium 5 assay
# in vitro [11] = settings: CD-1, mouse, liver microsomes
Structure (SMILES),efflux ratio at 10 µM [4],Papp A→B at 10 µM [5] [×10⁻⁶ cm/s],microsomal CLint at 1 µM (in vitro [6]) [µL/min/mg],microsomal CLint at 1 µM (in vitro [8]) [µL/min/mg],microsomal CLint at 1 µM (in vitro [1]; microsomes) [µL/min/mg],also measured
Clc1ccc2c(c1)CCCc1nnc([C@H]3CC[C@H](Oc4ccccn4)CC3)n1-2,–,–,–,–,–,microsomal CLint at 1 µM (in vitro [1]; liver microsomes): 29 µL/min/mg; inhibition in vivo at 10 mg/kg (animal or person [2]): 42%
O[C@@H]1Cc2cc(Cl)ccc2-n2c(nnc2[C@H]2CC[C@H](Oc3ccccn3)CC2)C1,3.5,23,56,5,–,inhibition in vivo at 3 mg/kg (animal or person [3]): 75%; IC50 [7]: > 30 µM; inhibition in vivo at 10 mg/kg (animal or person [2]): 84%
O[C@H]1Cc2cc(Cl)ccc2-n2c(nnc2[C@H]2CC[C@H](Oc3ccccn3)CC2)C1,–,20,18,7,–,inhibition in vivo at 3 mg/kg (animal or person [3]): 84%; IC50 [7]: > 30 µM; inhibition in vivo at 10 mg/kg (animal or person [2]): 92%
O=C([C@H]1CC[C@H](c2nnc3n2-c2ccc(Cl)cc2CC2(C3)OCCO2)CC1)N1CCOCC1,29,1.3,3,3,–,–
Clc1ccc2c(c1)CC1(Cc3nnc([C@H]4CC[C@H](Oc5ccccn5)CC4)n3-2)OCCCO1,0.8,7,15,27,–,inhibition in vivo at 3 mg/kg (animal or person [3]): 69%; inhibition in vivo at 10 mg/kg (animal or person [2]): 79%
CC(C)NC1Cc2cc(Br)ccc2-n2c(nnc2[C@H]2CC[C@H](Oc3ccccn3)CC2)C1 (stereo not given in full),–,–,–,–,–,inhibition in vivo at 3 mg/kg (animal or person [3]): 64%
N[C@@H]1Cc2cc(Cl)ccc2-n2c(nnc2[C@H]2CC[C@H](Oc3ccccn3)CC2)C1,35,2.8,7,9,5,IC50 [7]: 16.7 µM
CN1CCN(CC2Cc3cc(Cl)ccc3-n3c(nnc3[C@H]3CC[C@H](Oc4ccccn4)CC3)C2)CC1 (stereo not given in full),7.5,8.6,3,6,11,Ki (Vasopressin V1a receptor [9]): 0.8 nM; IC50 (Vasopressin V1a receptor [10]): 7.1 nM
CC(C)NC1Cc2ccccc2-n2c(nnc2[C@H]2CC[C@H](Oc3ccccn3)CC2)C1 (stereo not given in full),–,–,–,–,–,Ki (Vasopressin V1a receptor [9]): 5.6 nM; inhibition in vivo at 3 mg/kg (animal or person [3]): 18%
c1ccc(O[C@H]2CC[C@H](c3nnc4n3-c3ccccc3CC3(C4)OCCO3)CC2)nc1,–,–,–,–,–,inhibition in vivo at 10 mg/kg (animal or person [2]): 49%
FC[C@H]1Cc2cc(Cl)ccc2-n2c(nnc2[C@H]2CC[C@H](Oc3ccccn3)CC2)C1,–,–,–,–,–,IC50 [7]: 13 µM
O=C(N[C@@H]1Cc2cc(Cl)ccc2-n2c(nnc2[C@H]2CC[C@H](Oc3ccccn3)CC2)C1)C1CCC(F)(F)CC1,–,–,32,–,34,microsomal CLint at 1 µM (in vitro [11]): 154 µL/min/mg
CC(C)N[C@H]1Cc2cc(Cl)ccc2-n2c(nnc2[C@H]2CC[C@H](Oc3ccccn3)CC2)C1,–,–,–,–,–,IC50 [7]: 3.8 µM
O=C(N[C@@H]1Cc2cc(Cl)ccc2-n2c(nnc2[C@H]2CC[C@H](Oc3ccccn3)CC2)C1)C1CCC1,–,–,86,–,157,microsomal CLint at 1 µM (in vitro [11]): 91 µL/min/mg
Fc1ccc2c(c1)CC1(Cc3nnc([C@H]4CC[C@H](Oc5ccccn5)CC4)n3-2)OCCO1,–,–,–,–,–,inhibition in vivo at 10 mg/kg (animal or person [2]): 49%
CC(C)(C)C(=O)N[C@@H]1Cc2cc(Cl)ccc2-n2c(nnc2[C@H]2CC[C@H](Oc3ccccn3)CC2)C1,–,–,77,–,49,microsomal CLint at 1 µM (in vitro [11]): 242 µL/min/mg
N[C@H]1Cc2cc(Cl)ccc2-n2c(nnc2[C@H]2CC[C@H](Oc3ccccn3)CC2)C1,44,2.6,36,11,4,–
CN(C)CC1Cc2cc(Cl)ccc2-n2c(nnc2[C@H]2CC[C@H](Oc3ccccn3)CC2)C1 (stereo not given in full),–,–,47,39,42,Ki (Vasopressin V1a receptor [9]): 0.5 nM; IC50 (Vasopressin V1a receptor [10]): 4.7 nM
CO[C@]1(C)CC[C@@H](c2nnc3n2-c2ccc(Cl)cc2CC2(C3)OCCO2)CC1,1,42,12,16,–,inhibition in vivo at 3 mg/kg (animal or person [3]): 0%; IC50 [7]: > 30 µM; inhibition in vivo at 10 mg/kg (animal or person [2]): 41%
N#Cc1ccc2c(c1)CC1(Cc3nnc([C@H]4CC[C@H](Oc5ccccn5)CC4)n3-2)OCCO1,–,–,–,–,–,inhibition in vivo at 10 mg/kg (animal or person [2]): 69%
CC(=O)N[C@@H]1Cc2cc(Cl)ccc2-n2c(nnc2[C@H]2CC[C@H](Oc3ccccn3)CC2)C1,14,2.7,1,–,0.2,microsomal CLint at 1 µM (in vitro [11]): 4 µL/min/mg
CCN[C@@H]1Cc2cc(Cl)ccc2-n2c(nnc2[C@H]2CC[C@H](Oc3ccccn3)CC2)C1,1.4,24,15,16,21,IC50 [7]: 3.5 µM
NC1CCc2cc(Cl)ccc2-n2c1nnc2[C@H]1CC[C@H](Oc2ccccn2)CC1 (stereo not given in full),–,–,–,–,–,Ki (Vasopressin V1a receptor [9]): 8 nM; IC50 (Vasopressin V1a receptor [10]): 42 nM
Clc1ccc2c(c1)CC(CN1CCOCC1)Cc1nnc([C@H]3CC[C@H](Oc4ccccn4)CC3)n1-2 (stereo not given in full),–,–,145,101,134,Ki (Vasopressin V1a receptor [9]): 0.4 nM; IC50 (Vasopressin V1a receptor [10]): 2.1 nM

Structure (SMILES),efflux ratio at 10 µM [4],Papp A→B at 10 µM [5] [×10⁻⁶ cm/s],microsomal CLint at 1 µM (in vitro [6]) [µL/min/mg],microsomal CLint at 1 µM (in vitro [8]) [µL/min/mg],microsomal CLint at 1 µM (in vitro [1]; microsomes) [µL/min/mg],also measured
OC[C@@H]1Cc2cc(Cl)ccc2-n2c(nnc2[C@H]2CC[C@H](Oc3ccccn3)CC2)C1,–,–,–,–,–,IC50 [7]: 19 µM
OC[C@H]1Cc2cc(Cl)ccc2-n2c(nnc2[C@H]2CC[C@H](Oc3ccccn3)CC2)C1,–,–,–,–,–,IC50 [7]: 23 µM
OCC1Cc2cc(Cl)ccc2-n2c(nnc2[C@H]2CC[C@H](Oc3ccccn3)CC2)C1 (stereo not given in full),–,–,–,–,–,IC50 [7]: 21.4 µM
FC[C@@H]1Cc2cc(Cl)ccc2-n2c(nnc2[C@H]2CC[C@H](Oc3ccccn3)CC2)C1,–,–,–,–,–,IC50 [7]: 12 µM
O=C(N[C@@H]1Cc2cc(Cl)ccc2-n2c(nnc2[C@H]2CC[C@H](Oc3ccccn3)CC2)C1)C1CC1,14.6,4.3,1,–,1,microsomal CLint at 1 µM (in vitro [11]): 22 µL/min/mg
FC1(F)CCC(NC2Cc3cc(Cl)ccc3-n3c(nnc3[C@H]3CC[C@H](Oc4ccccn4)CC3)C2)CC1 (stereo not given in full),–,–,26,37,26,–
CNC1CCc2nnc([C@H]3CC[C@H](Oc4ccccn4)CC3)n2-c2ccc(Cl)cc21 (stereo not given in full),6.8,9.3,–,–,–,Ki (Vasopressin V1a receptor [9]): 1.3 nM; IC50 (Vasopressin V1a receptor [10]): 6.9 nM
CC(C)N[C@@H]1Cc2cc(Cl)ccc2-n2c(nnc2[C@H]2CC[C@H](Oc3ccccn3)CC2)C1,–,–,–,–,–,IC50 [7]: 4 µM
Brc1ccc2c(c1)CC1(Cc3nnc([C@H]4CC[C@H](Oc5ccccn5)CC4)n3-2)OCCO1,–,–,–,–,–,inhibition in vivo at 10 mg/kg (animal or person [2]): 99%
FC(F)(F)c1ccc2c(c1)CC1(Cc3nnc([C@H]4CC[C@H](Oc5ccccn5)CC4)n3-2)OCCO1,–,–,–,–,–,inhibition in vivo at 10 mg/kg (animal or person [2]): 76%
CN(C)CCC(=O)N[C@@H]1Cc2cc(Cl)ccc2-n2c(nnc2[C@H]2CC[C@H](Oc3ccccn3)CC2)C1,–,–,29,–,15,microsomal CLint at 1 µM (in vitro [11]): 96 µL/min/mg
NCC1Cc2cc(Cl)ccc2-n2c(nnc2[C@H]2CC[C@H](Oc3ccccn3)CC2)C1 (stereo not given in full),–,–,25,35,48,Ki (Vasopressin V1a receptor [9]): 3.1 nM; IC50 (Vasopressin V1a receptor [10]): 15 nM
Clc1ccc2c(c1)CC(NC1COC1)Cc1nnc([C@H]3CC[C@H](Oc4ccccn4)CC3)n1-2 (stereo not given in full),4.4,24,17,14,16,–
CC(C)NC1Cc2cc(C#N)ccc2-n2c(nnc2[C@H]2CC[C@H](Oc3ccccn3)CC2)C1 (stereo not given in full),–,–,–,–,–,inhibition in vivo at 3 mg/kg (animal or person [3]): 56%
CNC1Cc2cc(Cl)ccc2-n2c(nnc2[C@H]2CC[C@H](Oc3ccccn3)CC2)C1 (stereo not given in full),1.8,40,19,24,12,–
CC(C)NCC1Cc2cc(Cl)ccc2-n2c(nnc2[C@H]2CC[C@H](Oc3ccccn3)CC2)C1 (stereo not given in full),–,–,6,8,20,Ki (Vasopressin V1a receptor [9]): 2.8 nM; IC50 (Vasopressin V1a receptor [10]): 55 nM
Clc1ccc2c(c1)CC(CNC1CCOCC1)Cc1nnc([C@H]3CC[C@H](Oc4ccccn4)CC3)n1-2 (stereo not given in full),7.1,8.1,8,6,14,Ki (Vasopressin V1a receptor [9]): 2.3 nM; IC50 (Vasopressin V1a receptor [10]): 15 nM
CN(C)C1Cc2cc(Cl)ccc2-n2c(nnc2[C@H]2CC[C@H](Oc3ccccn3)CC2)C1 (stereo not given in full),1.3,23,36,37,34,–
Clc1ccc2c(c1)CC(NC1CCOCC1)Cc1nnc([C@H]3CC[C@H](Oc4ccccn4)CC3)n1-2 (stereo not given in full),1.1,41,9,15,24,–
CC(C)NC1Cc2cc(F)ccc2-n2c(nnc2[C@H]2CC[C@H](Oc3ccccn3)CC2)C1 (stereo not given in full),–,–,–,–,–,inhibition in vivo at 3 mg/kg (animal or person [3]): 58%
CN(C)CC(=O)NC1Cc2cc(Cl)ccc2-n2c(nnc2[C@H]2CC[C@H](Oc3ccccn3)CC2)C1 (mixture of isomers),–,–,6,2,0.2,–
NC1Cc2cc(Cl)ccc2-n2c(nnc2[C@H]2CC[C@H](Oc3ccccn3)CC2)C1 (mixture of isomers),29,3,11,14,2,–
CC(C)NC1Cc2cc(Cl)ccc2-n2c(nnc2[C@H]2CC[C@H](Oc3ccccn3)CC2)C1 (mixture of isomers),–,–,–,–,–,IC50 [7]: 3.7 µM
